The source of these data is US20240100044A1, “HYDROGEL COMPOSITION AND USES THEREOF IN THE PREVENTION AND/OR TREATMENT OF SKIN DAMAGE CAUSED BY RADIATION” (TARIAN PHARMA, priority 2021, published 2024).

One series deals with radiation dermatitis. The settings on record: topical, applied up to 20 minutes before radiotherapy; cited from earlier work.
The subject of series [1] is alpha2-adrenergic receptors. The settings on record: cited from earlier work.
How the values of series [2] were obtained:
(§1) Saturated solutions were prepared by adding an excess of drug substance to various solvents and storing the samples in sealed containers for 24 hours at room temperature with continuous stirring.
(§2) After the equilibration period, samples were centrifuged or filtered and the brimonidine tartrate was quantified using the Thermo Scientific Dionex U3000 UPLC-UV system. The chromatographic conditions are described below: • Column: Sunfire C18 150 mm×4.6 mm, 3.5 μm • Temperature of column: 40° C. • Volume injected: […] • Flow: 0.8 ml/minute • UV detection: 246 nm
Saturated solutions were prepared, incubated and measured as described in Example 1.

The conditions of series [3]: value as per literature (ALPHAGAN Product Monograph), conditions not specified, cited from earlier work.
How the values of series [4] were obtained:
as §1
The majority of the samples were stirred using a magnetic stirrer; however, in the case of viscous samples (such as pure glycerine), the samples were stirred using a rotary mixer. The speed of the rotary mixer was adjusted to ensure proper mixing of the sample, this generally involving slower rotation speeds.
as §2
This is another data set of the same source.

Like-named read-outs stand apart in the source and are kept apart here. Marks after values point to notes of the source that are not given here.

Turning to `CNC[C@H](O)c1ccc(O)c(O)c1` [epinephrine], the “patients showing a significant benefit” value with radiation dermatitis was 50%.
On to `Brc1c(NC2=NCCN2)ccc2nccnc12` [Brimonidine], for which the “selectivity for alpha2-adrenergic receptors over alpha1-adrenergic receptors” value in series [1] is reported as 1,000 times.
On to brimonidine tartrate, for which, in series [2] (PG/PEG-400/GLY/PVP (20:10:5:1) vs PG/PEG-400/GLY/PVP/water (20:10:5:1:40)), the “active agent solubilised by non-volatile mixture compared to the aqueous mixture” value is recorded as “approximately 22%”. Also, the results for the “saturation in the aqueous solvent phase of the primary formulation” value in series [2] (concentration of 1% brimonidine tartrate) and in series [2] (concentration of 1.5% brimonidine tartrate) were “around 30%” and about 50%, respectively. For the same molecule, the Max solubility in series [2] (in PG/PEG-400 (20:10)) is given as 0.45 % (w/w); in series [2] (in PG/PEG-400/GLY (20:10:5)), 0.66 % (w/w); in series [2] (in PG/PEG-400/GLY/PVP (20:10:5:1)), 0.72 % (w/w); in series [2] (in PG/PEG-400/GLY/PVP/Water (20:10:5:1:40)), 3.3 % (w/w); in series [2] (in PG/PEG-400/PVP (20:10:1)) it was 0.45 % (w/w); in series [3] (in Propylene glycol) it was ~0.1**** % (w/w). Further, the Max solubility in series [3] (in WATER) is 3.4**** % (w/w); in series [4] (in ARLASOLVE DMI, 24 hours, room temperature), 0.01 % (w/w); in series [4] (in DMSO, visual solubility, UPLC-UV not performed), >8.5*** % (w/w); in series [4] (in GLUCAM E10, 24 hours, room temperature), 0.72* % (w/w); in series [4] (in GLUCAM E20, 24 hours, room temperature), 0.88* % (w/w); in series [4] (in Glycerine (GLY, 20 ml scintillation flask)), 1.61 % (w/w). Moreover, the Max solubility in series [4] (in Hexylene Glycol, 24 hours, room temperature) is recorded as 0.01 % (w/w); in series [4] (in Na Pyrrolidone Carboxylate (AJIDEW L50), 24 hours, room temperature) it was 0.06 % (w/w); in series [4] (in PEG-400, 24 hours, room temperature), 0.10 % (w/w); in series [4] (in Propylene Carbonate, 24 hours, room temperature), 0.01** % (w/w); in series [4] (in Propylene glycol, measured value), 0.56 % (w/w); in series [4] (in TRANSCUTOL, 24 hours, room temperature) it was 0.05 % (w/w). Besides, in series [4] (in WATER, measured value), the Max solubility is given as 6.40 % (w/w).
